Reference: paper PMC9966435, “Synthesis and Biological Evaluation of 3-Amidoquinuclidine Quaternary Ammonium Compounds as New Soft Antibacterial Agents” (Pharmaceuticals, 2023)
Converted amounts (≈) assume the structure as drawn. Read-outs that look alike come from different tables or passages of the source.

Experiments:
Type in all cases: cell-based
[1] = system: Listeria monocytogenes ATCC7644; experiment: Broth microdilution MIC in Mueller Hinton broth; details: Listeria monocytogenes
[2] = system: Pseudomonas aeruginosa ATTC27853; experiment: Broth microdilution MIC in Mueller Hinton broth; details: Pseudomonas aeruginosa
[3] = system: Staphylococcus aureus ATCC33591; experiment: Broth microdilution MIC in Mueller Hinton broth; details: Staphylococcus aureus
[4] = system: Salmonella enterica food isolate; experiment: microbe, parasite or virus in culture; details: Salmonella enterica, read-out: Minimum Inhibitory Concentration (MIC) Salmonella enterica food isolate
[5] = system: Enterococcus faecalis ATCC29212; experiment: Broth microdilution MIC in Mueller Hinton broth; details: Enterococcus faecalis
[6] = system: Escherichia coli ATTC25922; experiment: Broth microdilution MIC in Mueller Hinton broth; details: Escherichia coli
[7] = system: Bacillus cereus ATCC14579; experiment: Broth microdilution MIC in Mueller Hinton broth; details: Bacillus cereus
[8] = system: Staphylococcus aureus ATCC25923; experiment: Broth microdilution MIC in Mueller Hinton broth
[9] = system: Staphylococcus aureus Clinical/MRSA; experiment: Broth microdilution MIC in Mueller Hinton broth; details: Staphylococcus aureus, MRSA, read-out: Minimum Inhibitory Concentration (MIC) Staphylococcus aureus Clinical/MRSA
[10] = system: Staphylococcus aureus ATCC 25923; experiment: MIC in cation-adjusted Mueller Hinton broth (CA-MHB)
Protocol: A representative bacterial strain, Staphylococcus aureus ATCC 25923, was grown overnight in Mueller Hinton broth (MHB). The following day, the culture was diluted in tempered MHB and allowed to grow at 37 °C with constant shaking of 220 rpm. Once the bacterial culture reached the exponential growth phase (OD600 = 0.3–0.5), it was diluted in the cation-adjusted Mueller Hinton broth (CA-MHB) containing MgCl2 (10 mM) to the final cell count of 5 × 10^5 CFU/mL. The previously prepared 96-well plate contained twofold serial dilutions of the compounds to be tested, dissolved in CA-MHB, in the concentrations range of 125 µM to 0.12 µM. Then, 50 µL of the bacterial cells diluted in CA-MHB was pipetted in each well of the plate and incubated overnight at 37 °C with constant shaking at 220 rpm. The next day, the minimum inhibitory concentration (MIC) was determined as the lowest concentration of the compound that prevented supposed bacterial growth in the wells. Visually determined results of antibacterial activity were confirmed by the addition of 20 µL 2-(4-iodophenyl)-3-(4-nitrophenyl)-5-phenyltetrazolium chloride (INT) reagent (6 mg/mL). The MIC value of a drug in CA-MHB containing NaCl (85 mM) was determined using the same experimental technique.

[11] = system: Staphylococcus aureus ATCC 25923; experiment: MIC in Dulbecco's Modified Eagle Medium (DMEM)
Protocol: The overnight culture of Staphylococcus aureus ATCC 25923 was diluted in fresh Mueller Hinton broth (MHB) and placed in an orbital shaker incubator (Gallenkamp, Cambridge, UK) at 37 °C and 220 rpm. Once the culture reached the exponential growth phase (OD600 = 0.3–0.5), cells were centrifuged (Heraeus, Biofuge primo R, Hanau, Germany) at room temperature at a speed of 4000× g. The cell pellet was resuspended in tempered Dulbecco’s Modified Eagle Medium (DMEM) to a final concentration of 5 × 10^5 CFU/mL. Then, 50 µL of as-prepared cells were added to a 96-well plate containing twofold serial dilutions of tested compounds in DMEM medium in the range of concentrations from 125 µM to 0.12 µM. The minimum inhibitory concentration (MIC) was visually assessed the next day. The MIC was determined as the lowest concentration of the substance at which no apparent bacterial growth was seen.

[12] = system: Staphylococcus aureus ATCC 25923; experiment: Time-resolved growth analysis
Protocol: The growth kinetic experiments were performed to further investigate the efficacy of the selected 3-amidoquinnuclidine candidates. The candidates from series 1 (QC14-Me, QC14-Ally, QC16-Me, and QC16-Ally) and series 3 (QBn-C12, QBn-C14, and QBn-C16) were incubated at MIC and ½ MIC for 350 min with an appropriate number of CFU of Staphylococcus aureus ATCC 25923 at 37 °C with shaking. Time-resolved growth analysis was performed along with the control, in which bacterial growth was monitored without the presence of the antibacterial agent.
Time-resolved growth analysis was performed in the microtiter plate reader (Bio-Tek EL808, Winooski, VT, USA) by incubating the selected antibacterial agent with Staphylococcus aureus ATCC 25923. The exponentially grown culture (OD600 = 0.3–0.5) of S. aureus ATCC 25923 was diluted to a final concentration of 5 × 10^4 CFU/mL. Then, 50 µL of such prepared cell culture was added to the 96-well plates containing the MIC or ½ MIC of the compound to be tested. The plates were incubated at 37 °C for 350 min in the microplate reader with shaking. OD600 was recorded at 10 min intervals. The results obtained represent the mean of two independent experiments performed in triplicate.

[13] = ATCC7644, read-out: Minimum Inhibitory Concentration (MIC) Listeria monocytogenes ATCC7644
[14] = ATTC27853, read-out: Minimum Inhibitory Concentration (MIC) Pseudomonas aeruginosa ATTC27853
[15] = ATCC33591, read-out: Minimum Inhibitory Concentration (MIC) Staphylococcus aureus ATCC33591
[16] = ATCC29212, read-out: Minimum Inhibitory Concentration (MIC) Enterococcus faecalis ATCC29212
[17] = ATTC25922, read-out: Minimum Inhibitory Concentration (MIC) Escherichia coli ATTC25922
[18] = ATCC14579, read-out: Minimum Inhibitory Concentration (MIC) Bacillus cereus ATCC14579
[19] = Staphylococcus aureus, ATCC25923, read-out: Minimum Inhibitory Concentration (MIC) Staphylococcus aureus ATCC25923
[20] = ATCC7644, MHB, read-out: Minimum Inhibitory Concentration (MIC) Listeria monocytogenes ATCC7644
[21] = ATTC27853, MHB, read-out: Minimum Inhibitory Concentration (MIC) Pseudomonas aeruginosa ATTC27853
[22] = ATCC33591, MHB, read-out: Minimum Inhibitory Concentration (MIC) Staphylococcus aureus ATCC33591
[23] = ATCC29212, MHB, read-out: Minimum Inhibitory Concentration (MIC) Enterococcus faecalis ATCC29212
[24] = ATTC25922, MHB, read-out: Minimum Inhibitory Concentration (MIC) Escherichia coli ATTC25922
[25] = ATCC14579, MHB, read-out: Minimum Inhibitory Concentration (MIC) Bacillus cereus ATCC14579
[26] = Staphylococcus aureus, ATCC25923, MHB, read-out: Minimum Inhibitory Concentration (MIC) Staphylococcus aureus ATCC25923
[27] = ATCC25923, cation-adjusted MHB, S. aureus ATCC 25923, read-out: MIC CA-MHB
[28] = ATCC25923, Dulbecco's Modified Eagle Medium, S. aureus ATCC 25923, read-out: MIC DMEM
[29] = MHB, read-out: Minimum Inhibitory Concentration (MIC) Staphylococcus aureus ATCC25923
[30] = ATCC25923, read-out: MIC CA-MHB

SMILES | MIC [1, 13] | MIC [2, 14] | MIC [3, 15] | MIC [4] | MIC [5, 16] | MIC [6, 17] | MIC [7, 18] | MIC [8, 19] | MIC [9] | MIC [1, 20] | MIC [2, 21] | MIC [3, 22] | MIC [5, 23] | MIC [6, 24] | MIC [7, 25] | MIC [8, 26] | MIC [8, 29] | also measured
CC(=O)NC1CN2CCC1CC2 (racemic) [QAc, (±)3-acetamidoquinuclidine] | > 100 µM | > 100 µM | > 100 µM | > 100 µM | > 100 µM | > 100 µM | > 100 µM | > 100 µM | > 100 µM | – | – | – | – | – | – | – | – | –
O=C(NC1CN2CCC1CC2)c1ccccc1 (racemic) [QBn, (±)3-benzamidoquinuclidine] | – | – | – | > 100 µM | – | – | – | – | > 100 µM | > 100 µM | > 100 µM | > 100 µM | > 100 µM | > 100 µM | > 100 µM | > 100 µM | – | –
CCCCCCCCCCCC[N+]12CCC(CC1)C(NC(C)=O)C2 (stereo not shown) [QAc-C12] | > 125 µM | > 125 µM | > 125 µM | > 125 µM | > 125 µM | > 125 µM | > 125 µM | > 125 µM | > 125 µM | – | – | – | – | – | – | – | – | –
CCCCCCCCCCCCCC[N+]12CCC(CC1)C(NC(C)=O)C2 (stereo not shown) [QAc-C14] | – | > 125 µM | > 125 µM | > 125 µM | – | > 125 µM | > 125 µM | > 125 µM | > 125 µM | 63 µM | – | – | 63 µM | – | – | – | – | –
CCCCCCCCCCCCCCCC[N+]12CCC(CC1)C(NC(C)=O)C2 (stereo not shown) [QAc-C16] | – | > 125 µM | > 125 µM | > 125 µM | – | > 125 µM | > 125 µM | > 125 µM | > 125 µM | 8 µM | – | – | 31 µM | – | – | – | – | –
CCCCCCCCCCCC[N+]12CCC(CC1)C(NC(=O)c1ccccc1)C2 (stereo not shown) [QBn-C12] | – | – | – | 63 µM | – | – | – | – | 63 µM | 31 µM | > 125 µM | 63 µM | 31 µM | 63 µM | 63 µM | 63 µM | 63 µM | MIC [10, 27]: 25 µM; MIC [11, 28]: 3 µM
CCCCCCCCCCCCCC[N+]12CCC(CC1)C(NC(=O)c1ccccc1)C2 (stereo not shown) [QBn-C14] | – | – | – | 31 µM | – | – | – | – | 31 µM | 4 µM | 63 µM | 31 µM | 8 µM | 31 µM | 63 µM | 31 µM | 31 µM | MIC [10, 27]: 25 µM; MIC [11, 28]: 3 µM
CCCCCCCCCCCCCCCC[N+]12CCC(CC1)C(NC(=O)c1ccccc1)C2 (stereo not shown) [QBn-C16] | – | – | – | 63 µM | – | – | – | – | 31 µM | 4 µM | > 125 µM | 31 µM | 4 µM | 31 µM | 63 µM | 63 µM | 63 µM | MIC [10, 27]: 6 µM; MIC [11, 28]: 3 µM
C=CC[N+]12CCC(CC1)C(NC(=O)CCCCCCCCCCC)C2 (stereo not shown) [QC12-Ally] | > 125 µM | > 125 µM | > 125 µM | > 125 µM | > 125 µM | > 125 µM | > 125 µM | > 125 µM | > 125 µM | – | – | – | – | – | – | – | – | –
CCCCCCCCCCCC(=O)NC1C[N+]2(C)CCC1CC2 (stereo not shown) [QC12-Me] | – | > 125 µM | > 125 µM | > 125 µM | – | – | – | – | 100 µM | 100 µM | – | – | 100 µM | 100 µM | 100 µM | 100 µM | – | –
CCCCCCCCCCCC(=O)NC1CN2CCC1CC2 (stereo not shown) [QC12] | – | – | – | > 100 µM | – | – | – | – | > 100 µM | 100 µM (≈ 30.9 µg/mL) | > 100 µM | 100 µM (≈ 30.9 µg/mL) | > 100 µM | > 100 µM | > 100 µM | > 100 µM | – | –
CCCCCCCCCCCCCC(=O)NC1C[N+]2(C)CCC1CC2 (stereo not shown) [QC14-Me] | 20 µM | > 125 µM | 100 µM | – | 30 µM | 100 µM | 50 µM | 40 µM | 60 µM | – | – | – | – | – | – | – | 40 µM | MIC [10, 30]: 40 µM; MIC ([4]; MHB): > 125 µM; MIC ([11]; ATCC25923, read-out: MIC DMEM): 12 µM; inhibition of bacterial growth at ½ MIC [12]: unable to inhibit bacterial growth
CCCCCCCCCCCCCC(=O)NC1CN2CCC1CC2 (stereo not shown) [QC14] | – | – | – | 100 µM (≈ 33.7 µg/mL) | – | – | – | – | 50 µM (≈ 16.8 µg/mL) | 25 µM (≈ 8.41 µg/mL) | > 100 µM | 50 µM (≈ 16.8 µg/mL) | 17 µM (≈ 5.72 µg/mL) | 50 µM (≈ 16.8 µg/mL) | 25 µM (≈ 8.41 µg/mL) | 60 µM (≈ 20.2 µg/mL) | – | –
CCCCCCCCCCCCCCCC(=O)NC1C[N+]2(C)CCC1CC2 (stereo not shown) [QC16-Me] | 8 µM | > 125 µM | 25 µM | – | 100 µM | > 100 µM | > 100 µM | 16 µM | 31 µM | – | – | – | – | – | – | – | 16 µM | MIC [10, 30]: 16 µM; MIC ([4]; MHB): > 125 µM; MIC ([11]; ATCC25923, read-out: MIC DMEM): 6 µM
CCCCCCCCCCCCCCCC(=O)NC1CN2CCC1CC2 (stereo not shown) [QC16] | – | – | – | > 100 µM | – | – | – | – | 250 µM (≈ 91.2 µg/mL) | 125 µM (≈ 45.6 µg/mL) | > 100 µM | 100 µM (≈ 36.5 µg/mL) | > 100 µM | > 100 µM | > 100 µM | 62.5 µM (≈ 22.8 µg/mL) | – | –
NC1CN2CCC1CC2 (stereo not shown) [QNH2, 3-aminoquinuclidine] | > 100 µM | > 100 µM | > 100 µM | > 100 µM | > 100 µM | > 100 µM | > 100 µM | > 100 µM | > 100 µM | – | – | – | – | – | – | – | – | –
